Measured values published in patent publication US8329720B1 (Pisgah Laboratories, Inc., priority 2007, dated 2012).

Key:
[1] = Intrinsic dissolution dose dumping profile (ethanol concentration in acidic media, FDA protocol); assay type: physicochemical; conditions: for dose dumping profile at the 5% ethanol condition: 5% ethanol in 0.1N HCl; for dose dumping profile at the 20% ethanol condition: 20% ethanol in 0.1N HCl; for active released: in approximately sixty minutes; for release: 40% EtOH in 0.1N HCl; for dose dumping dissolution profile: 0.1N HCl with 0, 5, 20 and 40% ethanol
Text: A general overview of this concern may be found at http://www.fda.gov/ohrms/dockets/AC/05/slides/2005-4187S2—02_Hussain.ppt. This Oct. 26, 2005 overview presentation by the deputy director OPS/CDER of the FDA and entitled “Preventing Alcohol Induced Dose Dumping is a Desired Product Design Feature” describes the dose-dumping phenomenon. Dose dumping can be employed by those with the deliberate intention of abusing the drug, but may also occur during the normal/moderate consumption of alcohol while taking a prescribed medication. Simply, dose dumping is that condition “in which the complete dose may be more rapidly released from the dosage form than intended, creating a potential safety risk”. Clearly, with the opioid narcotics, dose dumping for the intention of experiencing the “high” or rush, may have severe, even deadly consequences. The presentation further categorizes the results from dose dumping testing as either vulnerable, rugged or uncertain. If the dissolution profile in the presence of alcohol accelerates the release of the active ingredient, the product is classified as vulnerable and would likely not receive FDA market approval. In contrast, a rugged product design is achieved when the dissolution profile of the drug substance, again in the presence of alcohol, is identical to or is available to a lesser extent as compared to the control. The testing regimen recommended within the FDA's draft guidance includes determining the dissolution profile in 0.1N HCl solutions wherein the sample is tested in the medium and at increasing levels of ethanol, specifically at 5, 20 and 40% alcohol.
(§1) The opioid salts of the present invention were tested to determine their dissolution profile as a function of pH, and as a function of ethanol concentration in acidic media (dose dumping). To perform these experiments the buffered dissolution media and acidic ethanol solutions were prepared as identified herein, “Preparation of Solutions”. The test procedure was derived from the procedures cited in the United States Pharmacopeia and National Formulary (USP), numbers <1087> and <711>. The dose dumping procedure was adopted from the United States Food and Drug Administration's guidance regarding the dose dumping of oxymorphone. The sampling interval and regimen was defined and each sample analyzed by HPLC. Results from the HPLC analyses were plotted as a function of time and dissolution condition (FIG. 37 through FIG. 97 inclusive, and FIGS. 102-105, 109, 110, 114 and 115). This procedure was used to obtain the pH and dose dumping dissolution profiles disclosed herein. […] All activities within the procedure were conducted and executed for each of the compounds reported herein. Unless otherwise stated HPLC measurements were done and reported at ambient temperature and dissolution testing was done nominally at 37° C.
The following procedures were derived from the FDA Draft Guidance for Oxymorphone Hydrochloride (recommended in November, 2007).
(§2) The material which is to be subjected to dissolution is weighed using an analytical balance. 85.00-95.00 mg of the analyte was weighed and transferred to an International Crystals Laboratories fixed/static disk 316 stainless die with a 0.8 cm diameter die cavity. A hardened steel punch was then inserted into the cavity and the material was compressed at 2000 psi for 4-5 minutes using a bench top hydraulic press. The punch is then removed to expose the 0.5 cm^2 pellet surface. A Viton gasket is then placed around the threaded shoulder of the die and a polypropylene cap is threaded onto the die. This process can be repeated to generate as many pellets as is necessary for the experiment.
A Distek Dissolution System equipped with a model number TCS0200C temperature control system, was filled with water and set to a temperature of 37.3° C. The vessel cavities were then equipped with four 1 L flat-bottomed Distek dissolution vessels.

[2] = Intrinsic dissolution profile as a function of pH; assay type: physicochemical; conditions: result in words; for dissolution behavior at the low pH condition: 0.1N HCl; for pH dissolution profile: 0.1N HCl (pH 1), pH 4.5 acetate buffer, pH 6.8 phosphate buffer, water, 37° C.
Description: as §1
The following procedures were derived from USP <1087> Intrinsic Dissolution and USP <711> Dissolution methods, as well as manufacturer recommended procedures for use of the International Crystals Laboratories intrinsic dissolution disks.
as §2, with “45.00-55” for “85.00-95.00”
A Distek Dissolution System equipped with a model number TCS0200C temperature control system was filled with water and set to a temperature of 37.3° C. The vessel cavities were then equipped with four 1 L flat-bottomed Distek dissolution vessels. Four vessels were then filled with 500 mL of the following media: 0.1N HCl, pH 4.5 acetate buffer, pH 6.8 phosphate buffer, and USP grade water. The solutions were allowed to warm in the water bath for approximately 1 hour, but not exceeding 3 hours, or until the temperature of the media matched that of the water bath. Paddles were then mounted to the Distek stirring apparatus above the four dissolution vessels such that the distance between the paddle and the die face is 1 inch. The paddle speed is then set to 50 RPM.
The pellet prepared as described above was submerged into a vessel prepared as described above, with the pellet surface facing up (metal die up, polypropylene cap facing down). Forceps are used to aid this process so that the pellet apparatus can be gently placed into the bottom of the vessel. A timer is used to track the sampling intervals, and is started when the pellet is dropped into the solution. The lid to the dissolution apparatus is then lowered and the stirring apparatus is activated. Some planning is required in spacing out pellet drops such that each vessel can be sampled at the desired time intervals. Sampling is done by aspirating 10 mL of the solution using a Popper® Micro-Mate® Interchangeable Hypodermic Syringe equipped with a Vortex Pharma Group 10 micron cannula porous filter. This filter should be replaced after each use. Although sampling intervals can change from experiment to experiment, the following has been heavily utilized for the experiments described herein.

[3] = Modified dose dumping protocol: ethanol solutions in the absence of the 0.1N HCl media

## Polymorphic Hydrocodone Pamoate Form II
[1]; result in words
  dose dumping profile at the 5% ethanol condition: essentially identical to the 0.1N HCl condition
  dose dumping profile at the 20% ethanol condition: did not accelerate dose dumping
[1]; 40% ethanol in 0.1N HCl, result in words
  dose dumping profile at the 40% ethanol condition: did not promote dose dumping
[2]
  dissolution behavior at the low pH condition: slower release than Form I

## Oxycodone Pamoate [polymorphic form of oxycodone pamoate]
[1]; 0.1N HCl containing 5% EtOH
  active released: about 70%
[1]; 0.1N HCl
  active released: about 70%
[1]; 20% EtOH in 0.1N HCl, reached in about 30 minutes
  equilibrium solubility (release): ~10%
[1]; after 3 hours
  release: approximately 40%
[1]; after about 80 minutes
  release: ~10%
[2]
  pH dissolution profile: essentially identical pH dissolution profile as the amorphous form

## CN(C)CCCN1c2ccccc2CCc2ccccc21.CN(C)CCCN1c2ccccc2CCc2ccccc21.O=C(O)c1cc2ccccc2c(Cc2c(O)c(C(=O)O)cc3ccccc23)c1O [imipramine pamoate, reference compound]
[1]; result in words
  dose dumping dissolution profile: exhibited dose dumping properties

## COc1ccc2c3c1O[C@H]1C(=O)CC[C@@]4(O)[C@@H](C2)N(C)CC[C@]314.Cl [oxycodone hydrochloride, reference compound]
[3]; 40% EtOH (about 80 proof), no 0.1N HCl
  amount of oxycodone extracted / opiate immediately released: about 50%
[1]; result in words
  dose dumping dissolution profile: apparent solution equilibrium was obtained within minutes
[1]; 0.1 N HCl without EtOH, result in words
  dissolution in the control condition: complete dissolution within minutes
[1]; at each ethanol level, comparing FIGS. 58 and 59
  enhancement of the release profile by the acidic media: more than 20 % (absolute)
[2]
  pH dissolution profile: immediate release (IR) characteristics

## Oxycodone Pamoate [amorphous oxycodone pamoate]
[3]; 0.1N HCl with 0% EtOH, and 5, 20, 40% EtOH without acid, result in words
  dissolution profile as a function of ethanol concentration: slow linear process
[3]; 40% EtOH, over about one hour
  opiate released: approximately 60%
[3]; 40% ethanol condition, FIG. 62
  pamoate released (apparent pamoate equilibrium solubility): about 85%
  time to apparent pamoate equilibrium solubility: approximately 45 minutes
[1]; 0.1N HCl media, no EtOH
  time to complete (full) release of the opiate: about one
[1]; result in words
  dose dumping dissolution profile: no dose dumping benefit

## Amorphous Hydrocodone Pamoate Form I [amorphous Form I]
[1]; result in words
  dose dumping dissolution profile: somewhat erratic compared with Form II

## Amorphous Hydrocodone Pamoate Acetone Solvate [solvated amorphous form]
[1]; result in words
  dose dumping dissolution profile: somewhat erratic compared with Form II

## COc1ccc2c3c1O[C@H]1C(=O)CC[C@H]4[C@@H](C2)N(C)CC[C@]314.O=C(O)C(O)C(O)C(=O)O [hydrocodone bitartrate, reference compound]
[1]; result in words
  dose dumping dissolution profile: exhibit dose dumping propensities
[2]
  pH dissolution profile: immediate release (IR) characteristics

## Oxycodone Xinafoate
[1]; result in words
  dose dumping dissolution profile: dose dumps immediately at the higher EtOH concentrations
[2]
  pH dissolution profile: poor dissolution profile at pH 1 with a gradual release as the pH increases

## Hydrocodone Xinafoate
[2]
  pH dissolution profile: extended release at pH 1, and independent release as the pH increases

## Amorphous Hydrocodone Pamoate Form II
[1]; result in words
  dose dumping profile at the 5% ethanol condition: slow (and essentially identical) dissolution response
  dose dumping profile at the 20% ethanol condition: slow (and essentially identical) dissolution response
[2]
  dissolution behavior at the low pH condition: ranks between that observed for Form I and the acetone solvated form
